Laboratory results as given in ChEMBL document CHEMBL1136134, “Novel coumarin derivatives of heterocyclic compounds as lipid-lowering agents” (2003).
The source made the active and inactive calls. No cut-off for these calls is given here.

How the values were obtained:
[1] = system: Mus musculus; test: Plasma triglyceride lowering activity in swiss albino mice was determined after 3 mg/kg compound administered for 6 days; Not effective; format: functional, organism-based; parameters: dose 3 mg/kg
[2] = system: Mus musculus; test: Plasma triglyceride lowering activity in swiss albino mice was determined after 3 mg/kg compound administered for 6 days; format: functional
[3] = system: Mus musculus; test: Plasma triglyceride lowering activity in swiss albino mice was determined after 30 mg/kg compound administered for 6 days; format: functional

## CCOc1cc2ccc(OCCN(C)c3nc4ccccc4o3)cc2oc1=O
[1]
  Activity: inactive

## CCOc1cc2ccc(OC(C)(C)C(=O)O)cc2oc1=O
[2]
  Activity: 16%

## CCOc1cc2ccc(OCCN3c4ccccc4Oc4ccccc43)cc2oc1=O
[1]
  Activity: inactive

## CCOC(=O)c1cc2ccc(OCCc3nc(-c4ccccc4)oc3C)cc2oc1=O
[2]
  Activity: 2%

## CCOC(Cc1ccc(OCCN2c3ccccc3Oc3ccccc32)cc1)C(=O)O (configuration not stated)
[2]
  Activity: 47%

## CC(C)OC(=O)C(C)(C)Oc1ccc(C(=O)c2ccc(Cl)cc2)cc1 [FENOFIBRATE]
[3]
  Activity: 36%

## O=C(O)c1cc2ccc(OCCn3ncc4ccccc4c3=O)cc2oc1=O
[1]
  Activity: inactive

## CCOc1cc2ccc(OCCn3ncc4cc(C)ccc4c3=O)cc2oc1=O
[1]
  Activity: inactive

## CCOc1cc2ccc(OCCn3ncc4ccccc4c3=O)cc2oc1=O
[2]
  Activity: 45%

## CCOc1cc2ccc(OCc3ccccc3F)cc2oc1=O
[2]
  Activity: 25%

## CCOc1cc2ccc(OCCn3c(CC)nc4ccccc4c3=O)cc2oc1=O
[1]
  Activity: inactive

## CCOc1cc2ccc(OCCn3c(CC)nc(C)cc3=O)cc2oc1=O
[2]
  Activity: 26%

## CCOc1cc2ccc(OCCc3nc(-c4ccccc4)oc3C)cc2oc1=O
[2]
  Activity: 31%

## CC(=O)Nc1cc2ccc(OCCN(C)c3nc4ccccc4o3)cc2oc1=O
[1]
  Activity: inactive

## Cc1oc(-c2ccccc2)nc1CCOc1ccc2cc(C(=O)O)c(=O)oc2c1
[2]
  Activity: 32%

## CC(=O)Nc1cc2ccc(OCCc3nc(-c4ccccc4)oc3C)cc2oc1=O
[2]
  Activity: 2%

## CCOc1cc2ccc(OCCn3ccc4ccccc43)cc2oc1=O
[2]
  Activity: 27%
